Results reported in US20240270855A1, “NEURO-MESENCHYME UNITS CONTROL ILC2 AND OBESITY VIA A BRAIN-ADIPOSE CIRCUIT” (Fundação D. Anna de Sommer Champalimaud e Dr. Carlos Montez …, priority 2021, published 2024).

Legend:
RET [1] = conditions: Tokugawa et al., Neurochem Int. 2003; cited from earlier work
[2] = test system: dopaminergic and noradrenergic neurons; assay: Chemical sympathetic ablation with 6-OHDA, GAT ILC2 cytokines by flow cytometry; assay type: in vivo, mice
PDGFRA positive MSC = assay: RNA sequencing of PDGFRA positive MSC from 6-OHDA-treated mice; assay type: in vivo; conditions: RNAseq, 6-OHDA vs vehicle
GAT = assay: Quantitative RT-PCR gene expression in GAT and GAT cell populations after 6-OHDA or clenbuterol; assay type: in vivo, mice; conditions: for expression of IL-33: GAT and PDGFRA+MSCs of treated mice; for Gdnf expression in other mesenchymal counterparts, adipocytes and endothelial cells: GAT cell populations; for expression of IL-25: PDGFRA+MSCs of treated mice; for Gdnf expression in PDGFRA+MSC: sorted GAT cell population; for Gdnf expression in the GAT: total GAT RNA
[3] = target: T1, beta-2 adrenergic receptor (ADRB2) (Mus musculus, UniProt P18762); assay: Systemic activation of ADRB2 with clenbuterol, GAT ILC2 cytokines; assay type: in vivo, mice; conditions: clenbuterol in drinking water, 10 mg/kg/day, 8 days
T1 construct: endogenous in cells; host or cells: C57BL/6J mice in vivo
T1 sequence (P18762 whole entry): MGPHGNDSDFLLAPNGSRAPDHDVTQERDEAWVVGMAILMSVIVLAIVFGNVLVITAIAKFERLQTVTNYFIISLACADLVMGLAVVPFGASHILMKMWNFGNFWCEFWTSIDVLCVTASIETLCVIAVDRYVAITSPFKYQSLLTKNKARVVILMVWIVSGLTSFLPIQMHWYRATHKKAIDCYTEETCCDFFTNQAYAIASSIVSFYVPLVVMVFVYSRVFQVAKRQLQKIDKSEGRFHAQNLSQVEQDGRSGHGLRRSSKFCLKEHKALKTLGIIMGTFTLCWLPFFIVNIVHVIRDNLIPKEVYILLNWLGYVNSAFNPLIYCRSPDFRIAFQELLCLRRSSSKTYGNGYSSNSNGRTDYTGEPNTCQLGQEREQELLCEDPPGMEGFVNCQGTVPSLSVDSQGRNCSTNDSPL

purified GAT PDGFRA+MSCs = assay: In vitro MSC activation with clenbuterol, MSC-derived GDNF; assay type: cell-based, mice; conditions: 10 μg/ml clenbuterol, 16 hours
Method: In vitro and in vivo MSC activation: For in vitro experiments, purified GAT PDGFRA+MSCs were cultured in complete DMEM (supplemented with 10% FBS, 1% HEPES, sodium pyruvate, glutamine, streptomycin and penicillin (Corning)) at 37° C. After 2 hours of rest in complete DMEM without FBS, MSCs were stimulated for 16 hours with 10 μg/ml clenbuterol. For RNA analysis, MSCs were lysed using RLT buffer (Qiagen). For GDNF protein analysis, MSCs were incubated with brefeldin A (eBioscience) during clenbuterol stimulation prior to intracellular staining.

RET [4] = target: RET (Homo sapiens, UniProt P07949); conditions: Akeno-Stuart et al., Cancer Res. 2007; cited from earlier work
Chain of RET (Homo sapiens, UniProt P07949) (P07949 29-1114): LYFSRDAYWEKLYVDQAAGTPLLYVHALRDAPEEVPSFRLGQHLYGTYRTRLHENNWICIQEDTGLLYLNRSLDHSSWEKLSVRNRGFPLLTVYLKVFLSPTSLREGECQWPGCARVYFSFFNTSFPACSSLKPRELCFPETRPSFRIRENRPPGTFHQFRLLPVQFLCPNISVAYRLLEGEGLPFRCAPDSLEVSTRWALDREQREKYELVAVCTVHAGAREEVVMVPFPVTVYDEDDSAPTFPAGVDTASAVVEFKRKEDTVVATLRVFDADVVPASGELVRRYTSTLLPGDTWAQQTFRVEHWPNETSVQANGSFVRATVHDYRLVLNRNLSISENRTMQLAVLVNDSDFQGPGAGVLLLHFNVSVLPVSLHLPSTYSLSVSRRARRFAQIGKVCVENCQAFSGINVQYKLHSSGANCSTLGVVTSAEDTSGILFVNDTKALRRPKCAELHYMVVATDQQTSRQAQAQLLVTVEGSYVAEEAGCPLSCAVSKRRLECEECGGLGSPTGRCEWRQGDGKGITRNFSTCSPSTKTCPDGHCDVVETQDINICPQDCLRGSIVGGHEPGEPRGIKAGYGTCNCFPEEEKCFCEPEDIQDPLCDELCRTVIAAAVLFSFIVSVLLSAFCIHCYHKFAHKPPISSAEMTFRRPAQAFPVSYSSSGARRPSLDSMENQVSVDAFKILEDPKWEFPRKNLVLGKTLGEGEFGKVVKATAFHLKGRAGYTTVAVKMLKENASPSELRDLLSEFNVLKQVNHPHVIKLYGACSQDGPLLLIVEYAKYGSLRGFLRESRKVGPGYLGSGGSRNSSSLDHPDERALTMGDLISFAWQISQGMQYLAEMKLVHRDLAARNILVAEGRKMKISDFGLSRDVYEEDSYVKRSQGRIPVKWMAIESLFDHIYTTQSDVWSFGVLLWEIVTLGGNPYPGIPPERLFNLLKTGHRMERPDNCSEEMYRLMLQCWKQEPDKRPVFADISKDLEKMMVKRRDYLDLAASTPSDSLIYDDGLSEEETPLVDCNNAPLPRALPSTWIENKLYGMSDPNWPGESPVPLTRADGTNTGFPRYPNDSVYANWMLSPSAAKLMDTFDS

DREADD-carrying neurons = assay: Chemogenetic modulation of GAT neurons (AAV DREADD injected in GAT, then CNO); assay type: in vivo, mice; conditions: for interleukin-33 (Il33) expression: vs contralateral control
[5] = test system: GAT explant/ILC2 co-cultures; assay: GAT explant/ILC2 co-culture with GDNF, Ucp1 expression; assay type: cell-based, mice; conditions: 50 ng/mL, 16 hours, Ret^WT vs Ret^Δ ILC2; RET dependent
Method: Quantitative RT-PCR: Total RNA from sorted or cultured cells was extracted using RNeasy micro kit or RNeasy mini kit (Qiagen) according to the manufacturer's protocol. When indicated, total adipose tissue or adipocyte fraction was collected to Trizol (Invitrogen) followed by chloroform and isopropanol RNA extraction, according to the manufacturer's protocol. RNA concentration was determined using Nanodrop Spectrophotometer (Nanodrop Technologies). Quantitative real-time PCR was performed in StepOne and QuantStudio 5 real-time PCR systems (Applied Biosystems) with Hprt and Gapdh as housekeeping genes. Briefly, High Capacity RNA-to-cDNA Kit (Applied Biosystems) were used to retro-transcribe RNA, followed by a pre-amplification PCR using TaqMan PreAmp Master Mix (Applied Biosystems). TaqMan Gene Expression Master Mix (Applied Biosystems) was used in the real-time PCR. TaqMan Gene Expression Assays (Applied Biosystems) were the following: Hprt Mm00446968_m1; Gapdh Mm99999915_g1; […] Mm00439646_m1; […] Mm00434204_m1; Areg Mm01354339_m1; Penk Mm01212875_m1; Ret Mm00436304_m1; Gdnf Mm00599849_m1; Ucp1 Mm01244861_m1; Adrb2 Mm02524224_s1; Il25 Mm00499822_m1; and Il33 Mm00505403_m1. Analysis was performed using the comparative CT method (2^−ΔCT). When comparison or fold change between samples was required, the comparative ΔCT method (2^−ΔΔCT) was applied. […]

[6] = GAT, 6-OHDA 200 mg/kg intraperitoneally 3 days and 1 day before analysis, vs vehicle
[7] = AAV(3D) (activator DREADD), vs sham contralateral control
[8] = AAV(4D) (inhibitor DREADD), vs sham contralateral control

Molecule: CCN(CC)CCCC(C)Nc1cc(/C=C/c2ccccc2Cl)nc2cc(Cl)ccc12 (centres unmarked) [XIB4035, N(4)-(7-chloro-2-[(E)-2-(2-chloro-phenyl)-vinyl]-quinolin-4-yl)-N(1),N(1)-diethyl-pentane-1,4-diamine]
- RET autophosphorylation (RET [1]): induced RET autophosphorylation

Molecule: NCCc1cc(O)c(O)cc1O [6-OHDA, 6-hydroxydopamine]
- ILC2 cytokine production ([2]; Adrb2^ΔIl7ra mice): still impaired
- ILC2-derived IL-13 [2, 6]: pronounced reduction
- ILC2-derived Met-Enk [2, 6]: pronounced reduction
- ILC2-derived interleukin (IL-) 5 [2, 6]: pronounced reduction
- ILC2 cytokine production ([2]; Ret^ΔIl5 mice): unperturbed
- percentage of CD4 T cells ([2]; after 6-OHDA administration): no change
- GDNF expression by PDGFRA positive MSC (PDGFRA positive MSC): significantly reduced
- expression of IL-33 (GAT): unperturbed
- Gdnf expression in other mesenchymal counterparts, adipocytes and endothelial cells (GAT): unperturbed
- expression of IL-25 (GAT): unperturbed
- Gdnf expression in PDGFRA+MSC (GAT): modulated
- Gdnf expression in the GAT (GAT): modulated

Molecule: CC(C)(C)NCC(O)c1cc(Cl)c(N)c(Cl)c1 (centres unmarked) [clenbuterol]
- ILC2-derived cytokines in the GAT [3]: increased
- expression of IL-33 (GAT): unperturbed
- Gdnf expression in other mesenchymal counterparts, adipocytes and endothelial cells (GAT): unperturbed
- expression of IL-25 (GAT): unperturbed
- Gdnf expression in PDGFRA+MSC (GAT): modulated
- Gdnf expression in the GAT (GAT): modulated
- MSC-derived GDNF (purified GAT PDGFRA+MSCs): increased

Molecule: CCN1CCN(Cc2ccc(NC(=O)Nc3ccc(Oc4cc(NC)ncn4)cc3)cc2C(F)(F)F)CC1 [AST 487, 1-[4-[(4-ethylpiperazin-1-yl)methyl]-3-(trifluoromethyl)phenyl]-3-[4-[6-(methylamino)pyrimidin-4-yl]oxyphenyl]urea]
- RET autophosphorylation and activation of downstream effectors (RET [4]): inhibit RET autophosphorylation

Molecule: C[N+]1([O-])CCN(C2=Nc3cc(Cl)ccc3Nc3ccccc32)CC1 [CNO, Clozapine-N-oxide]
- GDNF expression in GAT (DREADD-carrying neurons; [7]): increased
- ILC2 function (DREADD-carrying neurons; [7]): increased
- interleukin-33 (Il33) expression (DREADD-carrying neurons; AAV(3D)): did not affect
- GDNF expression in GAT (DREADD-carrying neurons; [8]): reduced
- innate type 2 cytokines (DREADD-carrying neurons; [8]): reduced
- interleukin-33 (Il33) expression (DREADD-carrying neurons; AAV(4D)): did not affect

B1: GDNF: glial cell-derived neurotrophic factor, a GFRα ligand that activates RET (protein, UniProt P39905 78-211, looked up)
Glial cell line-derived …: SPDKQMAVLPRRERNRQAAAANPENSRGKGRRGQRGKNRGCVLTAIHLNVTDLGLGYETKEELIFRYCSGSCDAAETTYDKILKNLSRNRRLVSDKVGQACCRPIAFDDDLSFLDDNLVYHILRKHSAKRCGCI
- Ucp1 expression [5]: efficiently induced
- RET autophosphorylation (RET [1]): induced RET autophosphorylation
